pIC50: −log10 of the molar value.
Tested on: NCI-H1341 complex spheroids, percent test/control
Test: Anticancer human tumor NCI-H1341 cell line growth inhibition [AhR];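 also: spheroids exposed to agents for seven days before readout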
Conditions: for pIC50: curve of first compound; for viability, T/C: stronger effect = lower value
In short: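 Agents were dosed in half-log steps down from roughly clinical Cmax, or from 10 microM where Cmax was unknown, alone and with AhR antagonists. Read-out: percent test/control growth of tumor spheroids containing HUVEC and MSC stromal cells.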

[1] = second compound 0.1 µM, first compound 0.0316 µM
[2] = second compound 0.1 µM, first compound 0.1 µM
[3] = second compound 0.1 µM, first compound 0.316 µM
[4] = second compound 0.1 µM, first compound 1 µM
[5] = second compound 0.316 µM, first compound 0.0316 µM
[6] = second compound 0.316 µM, first compound 0.1 µM
[7] = second compound 0.316 µM, first compound 0.316 µM
[8] = second compound 0.316 µM, first compound 1 µM
[9] = second compound 1 µM, first compound 0.0316 µM
[10] = second compound 1 µM, first compound 0.1 µM
[11] = second compound 1 µM, first compound 0.316 µM
[12] = second compound 1 µM, first compound 1 µM
[13] = second compound 3.16 µM, first compound 0.0316 µM
[14] = second compound 3.16 µM, first compound 0.1 µM
[15] = second compound 3.16 µM, first compound 0.316 µM
[16] = second compound 3.16 µM, first compound 1 µM
[17] = second compound 10 µM, first compound 0.0316 µM
[18] = second compound 10 µM, first compound 0.1 µM
[19] = second compound 10 µM, first compound 0.316 µM
[20] = second compound 10 µM, first compound 1 µM

pIC50 (second compound 0.1 µM)	pIC50 (second compound 0.316 µM)	pIC50 (second compound 1 µM)	pIC50 (second compound 3.16 µM)	pIC50 (second compound 10 µM)	Structure (SMILES)	viability, T/C [1]	viability, T/C [2]	viability, T/C [3]	viability, T/C [4]	viability, T/C [5]	viability, T/C [6]	viability, T/C [7]	viability, T/C [8]	viability, T/C [9]	viability, T/C [10]	viability, T/C [11]	viability, T/C [12]	viability, T/C [13]	viability, T/C [14]	viability, T/C [15]	other results
7.01	7.22	6.95	7.17	8.04	CC1COCCN1c1cc(-c2ccnn2C)c2ccnc(-c3ccn[nH]3)c2n1 (stereo not given) + Cc1ccccc1N=Nc1ccc(NC(=O)c2ccnn2C)c(C)c1	74.2%	48.5%	38.3%	26.2%	65.6%	39.3%	34.8%	29%	70.8%	52.6%	34.3%	25.9%	55.1%	44.4%	40.8%	viability, T/C (second compound 0.1 µM, first compound 0.00316 µM): 98.2%; viability, T/C (second compound 0.1 µM, first compound 0.01 µM): 99.1%; viability, T/C (second compound 0.316 µM, first compound 0.00316 µM): 104%; viability, T/C (second compound 0.316 µM, first compound 0.01 µM): 102%; viability, T/C (second compound 1 µM, first compound 0.00316 µM): 82.6%; viability, T/C (second compound 1 µM, first compound 0.01 µM): 92%; viability, T/C (second compound 3.16 µM, first compound 0.00316 µM): 84%; viability, T/C (second compound 3.16 µM, first compound 0.01 µM): 72.7%; viability, T/C [16]: 27.6%; viability, T/C (second compound 10 µM, first compound 0.00316 µM): 53.8%; viability, T/C (second compound 10 µM, first compound 0.01 µM): 51%; viability, T/C [17]: 44.3%; viability, T/C [18]: 37.1%; viability, T/C [19]: 30.7%; viability, T/C [20]: 25.6%
5.80	5.45	5.50	5.68	6.14	CC1COCCN1c1cc(C2(S(C)(=N)=O)CC2)nc(-c2ccnc3[nH]ccc23)n1 (stereo not given) + Cc1ccccc1N=Nc1ccc(NC(=O)c2ccnn2C)c(C)c1	92.7%	92.3%	94.4%	57.6%	77.1%	108%	89%	81.2%	88.2%	114%	83.2%	84.3%	77.9%	90.2%	69.2%	viability, T/C (second compound 0.1 µM, first compound 3.16 µM): 45.2%; viability, T/C (second compound 0.1 µM, first compound 10 µM): 30.3%; viability, T/C (second compound 0.316 µM, first compound 3.16 µM): 52.2%; viability, T/C (second compound 0.316 µM, first compound 10 µM): 31.1%; viability, T/C (second compound 1 µM, first compound 3.16 µM): 48.6%; viability, T/C (second compound 1 µM, first compound 10 µM): 29.4%; viability, T/C [16]: 63.4%; viability, T/C (second compound 3.16 µM, first compound 3.16 µM): 43.6%; viability, T/C (second compound 3.16 µM, first compound 10 µM): 26%; viability, T/C [17]: 55.9%; viability, T/C [18]: 57.5%; viability, T/C [19]: 55.5%; viability, T/C [20]: 47.6%; viability, T/C (second compound 10 µM, first compound 3.16 µM): 34.5%; viability, T/C (second compound 10 µM, first compound 10 µM): 25.4%

Reference: PubChem BioAssay AID1919014 (Molecular Pharmacology Branch, DTP, NCI, 2023)
